{
  "source": "paper PMC8490515",
  "about": "“Neuromedin B receptor stimulation of Cav3.2 T-type Ca^2+ channels in primary sensory neurons mediates peripheral pain hypersensitivity” (Theranostics, 2021)",
  "key": {"[1]": {"tested_on": "T-type channels in small TG neurons", "assay": "Whole-cell patch clamp of T-type channel currents (IT) in small TG neurons", "assay_type": "cell-based, mouse"}, "Cav3.2 (α1H)": {"tested_on": "Cav3.2 (α1H)", "assay": "Cav3.2 channel currents in HEK293 cells coexpressing NmbR", "assay_type": "cell-based, human", "procedure": "Standard whole-cell recordings were made at room temperature (22-23 °C) as described previously, [25]. Recording electrodes were pulled from borosilicate glass microcapillary tubes (Sutter Instruments) and had resistances from 3 to 5 MΩ when filled with internal solution. Recordings were obtained using a MultiClamp 700B amplifier (Axon Instruments). Data were digitized on a personal computer using a Digidata 1440 interface under the control of the pClamp10.2 acquisition package (Molecular Devices). Data were acquired at 20 kHz with a low-pass Bessel filter at 2-5 kHz. Series resistance was compensated to 80%. The internal solution used for T-type channel current recordings contained 110 mM CsCl, 4 mM Mg-ATP, 0.3 mM Na2-GTP, 25 mM HEPES, and 10 mM EGTA, adjusted to pH 7.4 with CsOH; 295 mOsm. The external solution used for T-type channel current recordings contained 5 mM BaCl2, 140 mM TEA-Cl, 10 mM HEPES, 0.5 mM MgCl2, 5 mM CsCl, and 5.5 mM glucose, adjusted to pH 7.35 with TEA-OH; 305 mOsm. In experiments for Kv current recordings, the extracellular solution contained 140 mM choline-Cl, 1 mM MgCl2, 0.03 mM CaCl2, 5 mM KCl, 10 mM HEPES, and 10 mM glucose, adjusted to pH 7.4 with KOH; 310 mOsm. The intracellular pipette solution contained 140 mM KCl, 1 mM MgCl2, 0.5 mM CaCl2, 3 mM Mg-ATP, 0.3 mM Na2-GTP, 10 mM HEPES, and 5 mM EGTA, adjusted to pH 7.4 with KOH; 295 mOsm."}, "small TG neurons": {"tested_on": "small TG neurons", "assay": "TG neuronal excitability (action potential firing, rheobase, threshold)", "assay_type": "cell-based, mouse", "procedure": "(§1) All the procedures performed in this study were carried out in accordance with NIH guidelines and were approved by the Institutional Animal Care and Use Committee of Soochow University. TG neurons were dissociated as previously described, [23]. Briefly, TGs were harvested from 8- to 10-week-old ICR mice of either sex, cut into small pieces and treated with 2 mg/mL collagenase D (Roche) for 20 min followed by 1.5 mg/mL trypsin (Sigma) at 37 °C for 15 min. Cells were dissociated via gentle trituration with fire-polished sterilized Pasteur pipettes and centrifuged through a 15% BSA gradient to remove debris and nonneuronal cells. TG neurons were resuspended in neurobasal A (Thermo Fisher) supplemented with B27 (Thermo Fisher) and transferred onto Matrigel-coated coverslips. Patch clamp recordings were conducted 2 to 6 h after plating. In shRNA-treated knockdown experiments, TG cells were replated onto coverslips 48 h after infection.\nStandard whole-cell recordings were made at room temperature (22-23 °C) as described previously, [25]. Recording electrodes were pulled from borosilicate glass microcapillary tubes (Sutter Instruments) and had resistances from 3 to 5 MΩ when filled with internal solution. Recordings were obtained using a MultiClamp 700B amplifier (Axon Instruments). Data were digitized on a personal computer using a Digidata 1440 interface under the control of the pClamp10.2 acquisition package (Molecular Devices). Data were acquired at 20 kHz with a low-pass Bessel filter at 2-5 kHz. Series resistance was compensated to 80%. The internal solution used for T-type channel current recordings contained 110 mM CsCl, 4 mM Mg-ATP, 0.3 mM Na2-GTP, 25 mM HEPES, and 10 mM EGTA, adjusted to pH 7.4 with CsOH; 295 mOsm. The external solution used for T-type channel current recordings contained 5 mM BaCl2, 140 mM TEA-Cl, 10 mM HEPES, 0.5 mM MgCl2, 5 mM CsCl, and 5.5 mM glucose, adjusted to pH 7.35 with TEA-OH; 305 mOsm. In experiments for Kv current recordings, the extracellular solution contained 140 mM choline-Cl, 1 mM MgCl2, 0.03 mM CaCl2, 5 mM KCl, 10 mM HEPES, and 10 mM glucose, adjusted to pH 7.4 with KOH; 310 mOsm. The intracellular pipette solution contained 140 mM KCl, 1 mM MgCl2, 0.5 mM CaCl2, 3 mM Mg-ATP, 0.3 mM Na2-GTP, 10 mM HEPES, and 5 mM EGTA, adjusted to pH 7.4 with KOH; 295 mOsm. The two kinetically distinct Kv currents in small TG neurons were separated by the two-step voltage protocol as previously described, [26]. The external solution for Nav current clamp recordings contained 2 mM KCl, 2 mM MgCl2, 25 mM HEPES, 2 mM CaCl2, 128 mM NaCl, and 30 mM glucose, adjusted to pH 7.4 with NaOH; 305 mOsm. The internal solution contained 10 mM NaCl, 110 mM KCl, 4 mM Mg-ATP, 0.3 mM Na2-GTP, 25 mM HEPES, and 2 mM EGTA, adjusted to pH 7.3 with KOH; 295 mOsm. Nmb was applied to a patched cell by an air-pressure microinjector (Pneumatic PicoPump, model PV830, WPI).\nWe next determined the role of the Nmb-induced T-type channel response in regulating TG neuronal excitability. […] Furthermore, application of Nmb (100 nM) to TG neurons decreased the peak amplitude of the transient outward K^+ channel currents (A-type currents or IA) (decrease of 22.3 ± 3.9%; Figure 6C), while the sustained delayed rectifier K^+ channel currents (IDR) remained unaffected (decrease of 1.9 ± 1.6%; Figure 6C). […] To further test this hypothesis, a shorter (1 ms) current injection was applied to avoid contaminating the action potential waveform with the stimulus. Neurons were manually hyperpolarized to membrane potentials of -75 mV to maximize the number of T-type channels available for activation. With increasingly stronger current injections (+200 pA), the threshold current necessary to evoke an overshooting AP was determined for each neuron in the presence or absence of Nmb."}, "Cav3.1 (α1G)": {"tested_on": "Cav3.1 (α1G)", "assay": "Cav3.1 channel currents in HEK293 cells coexpressing NmbR", "assay_type": "cell-based, human", "conditions": "100 nM Nmb; -110 mV to -30 mV; n = 10"}, "Cav3.3 (α1I)": {"tested_on": "Cav3.3 (α1I)", "assay": "Cav3.3 channel currents in HEK293 cells coexpressing NmbR", "assay_type": "cell-based, human", "conditions": "100 nM Nmb; -110 mV to -30 mV; n = 7"}, "Cav3.2": {"tested_on": "Cav3.2", "assay": "Western blot of Cav3.2 protein in TG cells / TGs", "assay_type": "cell-based, mouse", "conditions": "100 nM Nmb"}, "[2]": {"tested_on": "high-voltage activated (HVA) Ca^2+ channels, L-type", "assay": "HVA / L-type Ca2+ channel currents in TG neurons", "assay_type": "cell-based, mouse", "procedure": "as §1\nStandard whole-cell recordings were made at room temperature (22-23 °C) as described previously, [25]. Recording electrodes were pulled from borosilicate glass microcapillary tubes (Sutter Instruments) and had resistances from 3 to 5 MΩ when filled with internal solution. Recordings were obtained using a MultiClamp 700B amplifier (Axon Instruments). […]"}},
  "data": [
    {"compound": "CCCCCCOC(=O)[C@]1(O)C[C@@H]2O[C@@]1(C)n1c3ccccc3c3c4c(c5c6ccccc6n2c5c31)C(=O)NC4", "note": "[KT-5720]", "values": [
      {"measurement": "effect on forskolin-induced IT increase", "setting": "[1]; 1 µM KT-5720 pretreatment, 10 μM forskolin, n = 6", "result": "abrogated"},
      {"measurement": "Nmb-induced increase in IT after KT-5720", "setting": "[1]; pretreatment 1 µM KT-5720, 100 nM Nmb, n = 7", "result": "2.8 ± 2.9", "unit": "%"},
      {"measurement": "Nmb-induced increase of Cav3.2 currents after KT-5720", "setting": "Cav3.2 (α1H); pretreatment 1 µM KT-5720, 100 nM Nmb, n = 9", "result": "1.9 ± 4.2", "unit": "%"},
      {"measurement": "effect on Nmb-mediated increase in AP firing rate / hyperexcitability", "setting": "small TG neurons; pretreatment KT-5720 1 µM (n = 12) or NiCl2 50 μM (n = 11), 100 nM Nmb", "result": "blocked"}
    ]},
    {"compound": "Neuromedin B [Nmb]", "values": [
      {"measurement": "reversal of IT increase when Nmb removed by washing", "setting": "[1]; 100 nM, washout", "result": "partially reversed"},
      {"measurement": "increase of peak amplitude of IT by Nmb", "setting": "[1]; 100 nM, mean ± SEM, n = 9", "result": "34.2 ± 1.9", "unit": "%"},
      {"measurement": "current-voltage relationship curve of IT", "setting": "[1]; 100 nM, n = 8", "result": "downward shifted the current-voltage relationship curve"},
      {"measurement": "depolarizing shift in steady-state inactivation", "setting": "[1]; 100 nM, n = 9", "result": "~ 7.3 mV"},
      {"measurement": "shift in activation properties", "setting": "[1]; 100 nM, n = 9", "result": "no significant shifts in activation properties"},
      {"measurement": "EC50", "setting": "[1]; sigmoidal Hill equation fit, small TG neurons, read-out: EC50 for IT increase", "result": 45.3, "unit": "nM"},
      {"measurement": "Vhalf of activation", "setting": "[1]; with 100 nM Nmb (control -47.1 ± 1.9 mV), n = 9", "result": "-46.3 ± 2.2", "unit": "mV"},
      {"measurement": "Vhalf of steady-state inactivation", "setting": "[1]; with 100 nM Nmb (control -80.1 ± 2.5 mV), n = 9", "result": "-72.8 ± 1.3", "unit": "mV"},
      {"measurement": "increase of Cav3.2 channel currents", "setting": "Cav3.2 (α1H); 100 nM Nmb, -110 mV to -30 mV, n = 9", "result": "36.2 ± 3.1", "unit": "%"},
      {"measurement": "EC50", "setting": "Cav3.2 (α1H); sigmoidal dose-response fit, read-out: EC50 for increase of Cav3.2 channel currents", "result": 47.6, "unit": "nM"},
      {"measurement": "increase of Cav3.1 channel currents", "setting": "Cav3.1 (α1G)", "result": "0.7 ± 1.2", "unit": "%"},
      {"measurement": "increase of Cav3.3 channel currents", "setting": "Cav3.3 (α1I)", "result": "2.9 ± 1.6", "unit": "%"},
      {"measurement": "Cav3.2 protein expression in TG cells", "setting": "Cav3.2", "result": "did not affect the Cav3.2 protein expression"},
      {"measurement": "decrease of L-type channel currents", "setting": "[2]; 100 nM", "result": "19.6 ± 2.2", "unit": "%"},
      {"measurement": "decrease of remaining HVA Ca2+ channel currents", "setting": "[2]; 100 nM Nmb with 5 μM nifedipine", "result": "1.3 ± 0.6", "unit": "%"},
      {"measurement": "threshold current with Nmb", "setting": "small TG neurons; 100 nM (control +0.98 nA)", "result": "+0.79 nA"},
      {"measurement": "increase of action potential firing rate", "setting": "small TG neurons; 100 nM, 5 mM 4-AP and 5 μM nifedipine, 1-s current injection, n = 17", "result": "43.7 ± 3.7", "unit": "%"},
      {"measurement": "cells in which the threshold was significantly lowered", "setting": "small TG neurons; 100 nM, 1 ms current injection, -75 mV", "result": "15 of 19"},
      {"measurement": "resting membrane potential", "setting": "small TG neurons; 100 nM, n = 17", "result": "not significantly changed"},
      {"measurement": "rheobase (vs nontreated)", "setting": "small TG neurons; 100 nM, n = 17", "result": "significantly lower"}
    ]}
  ]
}
